For assay [1], the system named is JEG-3 cells. As to conditions: JEG-3 cells (choriocarcinoma cell line); Biol. Reprod. (2007) 76: 203-10; cited from earlier work.
Assay [2] has as its system JEG-3 cells. In words: [3H]-thymidine incorporation in JEG-3 cells (JEG-3 protocol). Type of assay: cell-based. As for the experimental part: In JEG-3 cells (choriocarcinoma cell line) leptin is able to stimulate proliferation up to 3 fold (Biol. Reprod. (2007) 76: 203-10). […] The radioactivity incorporated by the cells is an index of their proliferative activity and is measured in counts per minute (CPM) with a liquid scintillation beta counter.
This finding can be applied to test whether a compound is able to either reproduce the effect of leptin on cell proliferation (leptin receptor agonist mimetic) (i.e., a given compound will cause an increase in incorporated [^3H]-Thymidine by the cells) or to inhibit the effect of leptin (antagonistic effect) by preventing the leptin-mediated increase in [^3H]-thymidine incorporation.
This approach has the advantage of using a non-recombinant system and has reasonable reproducibility and robustness.
For orientation: Incorporation of labelled thymidine or its analogues reports DNA synthesis.

For “Leptin: hormone synthesized in fat cells that is believed to act in the hypothalamus to reduce food intake and body weight”, the stimulation of proliferation entry in assay [1] is “up to 3 fold”. Moreover, the “concentration of maximal effect on [3H]-thymidine incorporation” value in assay [2] (FIG. 4) is 100 nM. For the same substance, the EC50 in assay [2] (FIG. 4, read-out: EC50, increase in [3H]-thymidine incorporation) is 2.1 nM.

The values are drawn from patent US20090203695A1, “Compounds IV” (Biovitrum AB, priority 2007, published 2009).
